Measured values reported in article PMC5774136, “Alarm pheromone and kairomone detection via bitter taste receptors in the mouse Grueneberg ganglion” (BMC Biology, 2018).

What was measured:
Test in all cases: Fura-2 calcium imaging, transfected HEK cells
Format in all cases: cell-based
TAS2R131 = molecular target: T1, TAS2R131 (Mus musculus, UniProt Q7M708); conditions: 100 uM ligand; weak agonist; Galpha16-gustducin chimera co-expressed
T1 construct: N-terminal tag of first 39 residues of bovine rhodopsin; pcDNA3.1(+); HEK 293 cells (ATCC CRL-1573); co-expressed human Galpha16 / mouse gustducin C-terminal 44 chimera
T1 sequence (Q7M708 1-310): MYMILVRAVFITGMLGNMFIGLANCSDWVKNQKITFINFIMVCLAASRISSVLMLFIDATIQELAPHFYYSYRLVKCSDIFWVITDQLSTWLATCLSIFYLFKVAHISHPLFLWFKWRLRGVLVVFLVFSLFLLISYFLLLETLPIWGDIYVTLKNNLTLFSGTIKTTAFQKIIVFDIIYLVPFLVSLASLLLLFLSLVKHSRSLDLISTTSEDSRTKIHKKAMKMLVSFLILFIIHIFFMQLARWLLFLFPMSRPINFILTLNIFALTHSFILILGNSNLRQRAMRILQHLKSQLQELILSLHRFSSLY

TAS2R115 = molecular target: T2, TAS2R115 (Mus musculus, UniProt Q7M719); conditions: 100 uM ligand; weak agonist; Galpha16-gustducin chimera co-expressed
T2 construct: N-terminal tag of first 39 residues of bovine rhodopsin; pcDNA3.1(+); HEK 293 cells (ATCC CRL-1573); co-expressed human Galpha16 / mouse gustducin C-terminal 44 chimera
T2 sequence (Q7M719 1-310): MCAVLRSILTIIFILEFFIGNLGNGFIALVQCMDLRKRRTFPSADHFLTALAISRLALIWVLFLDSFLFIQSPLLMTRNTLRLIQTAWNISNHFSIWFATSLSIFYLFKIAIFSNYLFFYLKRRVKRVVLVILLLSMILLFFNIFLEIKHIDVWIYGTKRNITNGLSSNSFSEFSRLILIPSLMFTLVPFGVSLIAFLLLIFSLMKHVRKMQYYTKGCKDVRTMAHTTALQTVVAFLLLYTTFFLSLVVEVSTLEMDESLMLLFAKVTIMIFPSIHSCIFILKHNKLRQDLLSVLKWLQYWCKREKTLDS

TAS2R143 [1] = molecular target: T3, TAS2R143 (Mus musculus, UniProt Q7TQB9); conditions: 100 uM ligand; agonist; Galpha16-gustducin chimera co-expressed
T3 construct: N-terminal tag of first 39 residues of bovine rhodopsin; pcDNA3.1(+); HEK 293 cells (ATCC CRL-1573); co-expressed human Galpha16 / mouse gustducin C-terminal 44 chimera
T3 sequence (Q7TQB9 1-293): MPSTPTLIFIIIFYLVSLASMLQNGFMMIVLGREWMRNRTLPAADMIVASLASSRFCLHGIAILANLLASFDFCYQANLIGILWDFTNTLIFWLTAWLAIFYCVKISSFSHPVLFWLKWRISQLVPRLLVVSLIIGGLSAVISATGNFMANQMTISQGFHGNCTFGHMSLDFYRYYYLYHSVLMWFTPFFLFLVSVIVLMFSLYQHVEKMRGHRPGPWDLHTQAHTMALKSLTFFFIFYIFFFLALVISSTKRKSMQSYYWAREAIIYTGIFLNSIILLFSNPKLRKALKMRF

TAS2R143 [2] = molecular target: T3, TAS2R143; conditions: 500 uM ligand; agonist; Galpha16-gustducin chimera co-expressed

Row | % of transfected cells responding at 100 uM (TAS2R131) | % of transfected cells responding at 100 uM (TAS2R115) | % of transfected cells responding at 100 uM (TAS2R143 [1]) | % of transfected cells responding at 500 uM (TAS2R143 [2]) | Molecule
1 | ~ 5% | ~ 5% | 14% | – | CCc1cnccn1 [2-EP, 2-ethylpyrazine]
2 | – | – | – | 51% | 2,4,5-trimethylthiazoline [TMT]
3 | – | – | 47% | – | CCCC1CCS1 (stereo not drawn) [2-PT, 2-propylthietane]
4 | – | – | 13% | – | CCC(C)C1=NCCS1 (stereo not drawn) [SBT, 2-sec-butylthiazoline]
